{"source": "patent US11192869B2", "about": "“CFTR regulators and methods of use thereof” (THE REGENTS OF THE UNIVERSITY OF CALIFORNIA, priority 2015, dated 2021)", "key": {"[1]": {"system": "tear secretion", "experiment": "Tear secretion (phenol red thread)", "format": "in vivo, mouse", "conditions": "for increase of tear fluid secretion: single topical dose, for (at least) four hours"}, "[2]": {"system": "loperamide-induced mouse model of constipation", "experiment": "Loperamide-induced mouse model of constipation"}, "[3]": {"system": "mouse model of aqueous-deficient dry eye produced by lacrimal gland excision", "experiment": "Lacrimal gland excision (LGE) mouse model of dry eye", "format": "in vivo", "conditions": "0.1 nmol topically three times daily", "experimental": "Tear secretion. To measure unstimulated tear production, phenol red threads (Zone-Quick, Oasis Medical, Glendora, Calif., USA) were placed for 10 s in the lateral canthi of isofluorane-anesthetized mice using jewelers' forceps. Tear volume was measured as the length of thread wetting, as visualized under a dissecting microscope. Serial measurements were used to evaluate compound pharmacodynamics after application of 2-μL drops of compound formulations (50-100 μM compound in PBS containing 0.5% polysorbate and 0.5% DMSO) comparing to vehicle.\n(§1) Lissamine green staining. To assess corneal epithelial disruption, 5 μL of lissamine green (LG) dye (1%) was applied to the ocular surface of isofluorane-anesthetized mice. Photographs of the eye were taken using a Nikon Digital camera adapted to an Olympus Zoom Stereo Microscope (Olympus, Center Valley, Pa., USA). Each corneal quadrant was scored on a 3-point scale by one blinded, trained observer, with the extent of staining in each quadrant classified as: 0, no staining; 1, sporadic (involving <25% of the total surface) staining; grade 2, diffuse punctate staining (25-75%); and grade 3, coalesced punctate staining (>75%). The total grade is reported as the sum of scores from all four quadrants, ranging from 0 to 12.\nMouse model of dry eye produced by lacrimal gland excision. […]"}, "[4]": {"system": "ocular surface", "experiment": "Ocular surface potential difference measurements", "format": "in vivo, mouse", "conditions": "wild-type mice, 1-10 μM", "experimental": "Ocular surface potential difference measurements. Open-circuit transepithelial PD were measured continuously in anesthetized mice in response to serial perfusions of different solutions over the ocular surface, as described (21). Mice were anesthetized with Avertin (2,2,2-tribromoethanol, 125 mg/kg intraperitoneal, Sigma-Aldrich, St. Louis, Mo., USA), and core temperature was maintained at 37° C. using a heating pad. Eyes were oriented with the cornea and conjunctiva facing upward and exposed by retracting the eyelid with cross-action forceps. Solutions were isosmolar (320±10 mOsM; compositions provided in ref. 21) and contained 10μ[…] □ indomethacin to prevent CFTR activation by prostaglandins. The ocular surface was perfused at 6 mL/min through plastic tubing using a multireservoir gravity pinch-valve system (ALA Scientific, Westbury, N.Y., USA) and variable-flow peristaltic pump (medium flow model; Fisher Scientific, Fair Lawn, N.J., USA). A probe catheter was fixed 1 mm above the cornea using a micropositioner and a suction cannula was positioned 3 mm from the orbit. The measuring electrode was in contact to the perfusion catheter and connected to a high-impedance voltmeter (IsoMilivolt Meter; WPI). The reference electrode was grounded via a winged 21-gauge needle filled with isosmolar saline, and inserted subcutaneously in the abdomen. Measuring and reference electrodes consisted of Ag/AgCl with 3 M KCl agar bridges.\nOcular surface potential difference measurements. Open-circuit transepithelial PD were measured continuously in anesthetized mice in response to serial perfusions of different solutions over the ocular surface, as described (21). Mice were anesthetized with Avertin (2,2,2-tribromoethanol, 125 mg/kg intraperitoneal, Sigma-Aldrich, St. Louis, Mo., USA), and core temperature was maintained at 37° C. using a heating pad. Eyes were oriented with the cornea and conjunctiva facing upward and exposed by retracting the eyelid with cross-action forceps. […]"}, "[5]": {"target": "T1, human wild-type CFTR (Homo sapiens, UniProt P13569)", "T1 construct": "expressed in transfected cells", "T1 sequence (P13569 whole entry)": "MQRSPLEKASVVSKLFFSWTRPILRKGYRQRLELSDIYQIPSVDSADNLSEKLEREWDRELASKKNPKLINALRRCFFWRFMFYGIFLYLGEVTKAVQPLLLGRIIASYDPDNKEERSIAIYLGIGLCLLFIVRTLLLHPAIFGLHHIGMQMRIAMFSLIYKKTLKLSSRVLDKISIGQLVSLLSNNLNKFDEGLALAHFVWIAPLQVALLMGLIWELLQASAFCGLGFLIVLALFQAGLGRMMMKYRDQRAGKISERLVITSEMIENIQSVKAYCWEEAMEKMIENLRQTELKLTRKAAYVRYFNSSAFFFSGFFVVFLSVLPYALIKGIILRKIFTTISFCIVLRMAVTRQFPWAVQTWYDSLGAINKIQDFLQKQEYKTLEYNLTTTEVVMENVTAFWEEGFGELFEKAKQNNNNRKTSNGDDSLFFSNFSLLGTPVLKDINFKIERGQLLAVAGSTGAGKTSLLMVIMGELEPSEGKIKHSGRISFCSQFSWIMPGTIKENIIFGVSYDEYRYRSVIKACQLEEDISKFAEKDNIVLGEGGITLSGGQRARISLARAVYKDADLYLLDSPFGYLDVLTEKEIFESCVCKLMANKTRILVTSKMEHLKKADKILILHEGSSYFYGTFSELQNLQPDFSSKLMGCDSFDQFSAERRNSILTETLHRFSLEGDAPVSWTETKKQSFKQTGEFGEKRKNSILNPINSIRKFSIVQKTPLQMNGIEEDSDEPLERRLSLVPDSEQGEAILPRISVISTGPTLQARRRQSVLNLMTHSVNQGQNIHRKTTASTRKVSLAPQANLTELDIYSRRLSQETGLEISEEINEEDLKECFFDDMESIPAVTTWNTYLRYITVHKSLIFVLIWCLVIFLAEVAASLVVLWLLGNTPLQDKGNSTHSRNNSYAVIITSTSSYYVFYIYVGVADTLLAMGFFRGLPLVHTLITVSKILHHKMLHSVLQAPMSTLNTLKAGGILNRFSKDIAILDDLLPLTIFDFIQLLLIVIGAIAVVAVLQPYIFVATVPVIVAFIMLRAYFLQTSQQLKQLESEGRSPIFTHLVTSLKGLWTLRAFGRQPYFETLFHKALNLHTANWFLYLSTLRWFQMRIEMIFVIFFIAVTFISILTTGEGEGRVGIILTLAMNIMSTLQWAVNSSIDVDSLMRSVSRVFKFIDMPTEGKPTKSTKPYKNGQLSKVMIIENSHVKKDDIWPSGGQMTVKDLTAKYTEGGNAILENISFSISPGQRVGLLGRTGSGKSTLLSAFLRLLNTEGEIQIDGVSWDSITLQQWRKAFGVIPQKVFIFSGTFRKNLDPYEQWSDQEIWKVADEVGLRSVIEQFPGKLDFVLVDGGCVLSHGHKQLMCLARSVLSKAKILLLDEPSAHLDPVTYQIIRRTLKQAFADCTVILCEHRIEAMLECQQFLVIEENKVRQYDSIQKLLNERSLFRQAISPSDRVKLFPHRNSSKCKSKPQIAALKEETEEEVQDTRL", "experiment": "Short-circuit current in FRT cells expressing wild-type human CFTR", "format": "cell-based", "conditions": "for CFTR activation (in words): short-circuit current", "experimental": "Short-circuit current measurement. Short-circuit current was measured in FRT cells stably expressing wild-type human CFTR cultured on porous filters as described. The basolateral solution contained 130 mM NaCl, 2.7 mM KCl, 1.5 mM KH2PO4, 1 mM CaCl2, 0.5 mM MgCl2, 10 mM glucose, and 10 mM Na-HEPES (pH 7.3, 37° C.). In the apical solution 65 mM NaCl was replaced by Na gluconate, and CaCl2 was increased to 2 mM, and the basolateral membrane was permeabilized with 250 μg/ml amphotericin B. Short-circuit current was measured in freshly harvested adult mouse colon at 37° C. using symmetrical Krebs-bicarbonate buffer.\nShort-circuit current. Fischer rat thyroid (FRT) cells stably expressing wild-type human CFTR were cultured on Snapwell inserts (Corning Costar, Corning N.Y., USA) for short-circuit current (Isc) measurements. After 6-9 days in culture, when the transepithelial resistance was >1000 Ω/cm^2, the inserts were mounted in an Ussing chamber system (World Precision Instruments, Sarasota, Fla., USA). The basolateral solution contained 130 mM NaCl, 2.7 mM KCl, 1.5 mM KH2PO4, 1 mM CaCl2, 0.5 mM MgCl2, 10 mM glucose, and 10 mM Na-HEPES (pH 7.3). In the apical bathing solution, 65 mM NaCl was replaced by Na gluconate, and CaCl2 was increased to 2 mM. Both solutions were bubbled with air and maintained at 37° C. The basolateral membrane was permeabilized with 250 μg/ml amphotericin B (26, 27). Hemichambers were connected to a DVC-1000 voltage clamp via Ag/AgCl electrodes and 3 M KCl agar bridges for Isc recording."}, "[6]": {"experiment": "Tear film pharmacokinetics by LC/MS", "conditions": "from quantity recovered vs EC50"}, "[7]": {"conditions": "mouse, in vivo"}, "[8]": {"conditions": "mouse, in vivo, topical or ocular"}, "[9]": {"experiment": "Ocular toxicity after chronic topical dosing (slit-lamp, lissamine green)", "format": "in vivo", "conditions": "chronically treated mice", "experimental": "as §1"}, "[10]": {"conditions": "juvenile rats; cited from earlier work"}, "[11]": {"conditions": "cited from earlier work"}}, "note": "“Also recorded” adds a separate entry of the source. Like-named read-outs stand apart in the source and are kept apart here. Where a SMILES comes first, the peptide text is derived from it. Bridges are numbered along the chain shown (N, C = ends)."}
{"molecule": "cholera toxin [reference compound]", "values": [{"measurement": "persistence of tear secretion effect", "setting": "[1]; mouse, in vivo", "value": "transient and undetectable after 2 hours"}]}
{"molecule": "Cn1c(=O)c(-c2cc([N+](=O)[O-])ccc2N)nc2ccccc21", "note": "[inactive chemical analog of CFTRact-J027, reference compound]", "values": [{"measurement": "efficacy of inactive analog in wildtype mice", "setting": "[2]; loperamide model, wildtype mice", "value": "nor was an inactive chemical analog of CFTRact-J027 effective"}]}
{"molecule": "CC(C)Cn1c(=O)n(C)c(=O)c2[nH]cnc21", "note": "[IBMX, 3-isobutyl-1-methylxanthine, reference compound]", "values": [{"measurement": "persistence of tear secretion effect", "setting": "[1]; after 2 hours", "value": "transient and undetectable after 2 hours"}]}
{"molecule": "CCN(CC)c1nc(Nc2ccccc2)nc(OC(C(F)(F)F)C(F)(F)F)n1", "note": "[CFTRact-K089]", "values": [{"measurement": "corneal / ocular surface epithelial disruption after LGE", "setting": "[3]", "value": "prevents corneal epithelial disruption; also recorded: fully prevented; also recorded: prevented ocular surface epithelial disruption"}, {"measurement": "tear secretion / tear volume after LGE", "setting": "[3]", "value": "restored tear secretion"}, {"measurement": "change in ocular surface PD (in words)", "setting": "[4]", "value": "large hyperpolarizations"}, {"measurement": "tear fluid secretion in CF mice", "setting": "[1]; CF mice", "value": "no effect"}, {"measurement": "increase of tear fluid secretion", "setting": "[1]", "value": "doubled; also recorded: approximately two-fold"}, {"measurement": "CFTR activation", "setting": "[5]; Isc", "value": "~50", "unit": "% Vmax"}, {"measurement": "CFTR activation (in words)", "setting": "[5]; wild-type CFTR", "value": "fully activated CFTR"}, {"measurement": "duration of therapeutic levels in tear fluid", "setting": "[6]", "value": "predicts therapeutic levels for at least six hours"}, {"measurement": "systemic absorption (in words)", "setting": "[7]", "value": "without detectable systemic absorption"}, {"measurement": "tear film bioavailability (in words)", "setting": "[8]", "value": "sustained tear film bioavailability"}, {"measurement": "LG staining, corneal or conjunctival epithelial disruption", "setting": "[9]", "value": "no corneal or conjunctival epithelial disruption"}, {"measurement": "ocular toxicity by slit-lamp evaluation", "setting": "[9]", "value": "no signs of ocular toxicity"}]}
{"molecule": "CC(C)(C)c1cc(C(C)(C)C)c(NC(=O)c2c[nH]c3ccccc3c2=O)cc1O", "note": "[VX-770, reference compound]", "values": [{"measurement": "adverse finding on chronic application", "setting": "[10]", "value": "cataracts"}, {"measurement": "change in ocular surface PD (in words)", "setting": "[4]", "value": "minimal changes"}, {"measurement": "increase of tear fluid secretion", "setting": "[1]", "value": "little tear secretion"}, {"measurement": "CFTR activation (in words)", "setting": "[5]; wild-type CFTR", "value": "relatively little activity; also recorded: relatively weak activity"}, {"measurement": "Emax", "setting": "[5]; wild-type CFTR, read-out: maximal activation of CFTR", "value": 15, "unit": "%"}]}
{"molecule": "C[C@@H]1NC(=O)[C@@H]2CCCN2C(=O)[C@H](CC(N)=O)NC(=O)[C@@H]2CSSC[C@H](N)C(=O)N[C@H]3CSSC[C@H](NC1=O)C(=O)N[C@@H]([C@@H](C)O)C(=O)NCC(=O)N[C@H](C(=O)N[C@@H](Cc1ccc(O)cc1)C(=O)O)CSSC[C@H](NC(=O)[C@H](Cc1ccc(O)cc1)NC(=O)[C@H](CCC(=O)O)NC3=O)C(=O)N2", "note": "[linaclotide, reference compound] (H-CCEYCCNPACTGCY-OH; disulfide 1-6, 2-10, 5-13)", "values": [{"measurement": "patients in whom effective", "setting": "[11]; chronic constipation patients", "value": "~20", "unit": "%"}, {"measurement": "stool output, % of the maximal CFTRact-J027 response", "setting": "[2]; oral 0.5 mg/kg, loperamide-treated mice", "value": 35, "unit": "%"}]}
{"molecule": "CCCCC(F)(F)[C@@]1(O)CC[C@H]2[C@@H](CC(=O)[C@@H]2CCCCCCC(=O)O)O1", "note": "[lubiprostone]", "values": [{"measurement": "patients in whom effective", "setting": "[11]; IBS-C patients", "value": "~13", "unit": "%"}]}
